Measured values taken from patent US20060287383A1, “Substance exhibiting antidepressant property” (priority 2003, published 2006).

What was measured:
Assay type in all cases: in vivo
white outbred male rats [1] = experiment: Porsolt method of behavioral despair (helplessness); settings: for Time of immobility: 10 minutes observation
From the text: The Porsolt method of behavioral despair (helplessness) (Porsolt R. D., Anton G., Blavet N. et al. Behavioral despair in rats: a new model sensitive to antidepressant treatment//Europ. J. Pharmacol. 1978—v. 47.—p. 379-391) is the basic model for assessing antidepressants (Andreeva N. I., ? H. ? . the Methodical Guidelines for Studying Antidepressant Activity of Pharmaceuticals,//Guidebook for Experimental (Preclinical) Studies of New Pharmaceuticals of the RF Ministry of Public Health.—ZAO IIA “Remedium”.—2000.—p. 121-125). The studies have been conducted on white outbred male rats having the weight of 230-250 grams. The animals have been put into a water reservoir having 40 cm in diameter and the depth of 60 cm, for the rats cannot either run out of the reservoir or find a support in it. The water temperature has been maintained at the level of 25° C., the experiments have been conducted within the period from 12 A.M. to 4 P.M. After coming into water the animals begin displaying energetic motion activity aimed at finding a way out of the aversive (troublesome) situation, but then they stop their attempts and take a typical position in the water, while being fully immovable or making insignificant motions necessary for keeping their heads over the water surface. The depressive condition intensity rate in this test is the duration of immobility. The immobility condition has been assessed visually, determining its duration within 10 minutes of the observations. Substances having antidepressant activity alleviate this condition by reducing the immobility time.
The studies have been conducted using animals divided into groups. The animals from the experimental groups have received single doses of phenotropyl in the amounts of 25, 50 and 100 mg/kg or the standard amitriptyline medication in the amount of 10 mg/kg (ampoule solution made by Spofa, the Czech Republic) in the volume corresponding to the dose. The animals from the control group have received distilled water in the same dosage. All the substances have been given intragastrically 40 minutes before the an experiment.

white outbred male rats [2] = experiment: reserpine depression method according to Bernardi; settings: for reduction of the diarrhea intensity / reduction of the intensity of ptosis: versus reserpine; for orientation and motion activity: reserpinized rats; for Diarrhea / Ptosis: 4-point scale; for Number of pulses in activity meter: three minutes, Varimex
From the text: The method of reserpine depression according to Bernardi (Bernardi D., Paglialunga S., Jori A. Peripheral and central components in the hyperthermic effect of desipramine in rezerpinized rats//J. Pharm. Pharmacol., 1968, vol. 20, p. 204-209) is one of the basic models for assessing antidepressants in studies of new pharmaceuticals. The studies have been conducted with white outbred male rats having the weight from 200 to 240 grams. Reserpine has been introduced intraperitoneally, as a single dose of 2.5 mg/kg 2 hours before the introduction of phenotropyl (intraperitoneally, single doses of 25, 50, 100 and 200 mg/kg) and 3 hours before starting the study. The animals from the control group have received intraperitoneally distilled water only in the same volumes as the animals from the experimental groups. The antidepressant activity of phenotropyl has been assessed by its effect on sedation (suppression of the orientation and motion activity), intensity of ptosis and diarrhea, which have been caused by reserpine in the rats.
The orientation and motion activity of the animals has been studied for three minutes in a special activity meter (Varimex). The intensity of ptosis and diarrhea has been assessed on the standard 4-point scale (Mashkovsky M. D., Andreeva N. I., Polezhaeva A. I. Pharmacology of Antidepressants. Moscow, Medicine Publishers, 1983, p. 194-199).

white outbred male mice = experiment: haloperidol catalepsy method
Method: As one of the indicators for antidepressant antagonism in relation to depriming effects of neuroleptics, neuroleptic-induced catalepsy is used. The maintenance of catalepsy in animals is assessed by their ability to maintain set or unusual poses for a definite time (Morpurgo C. Effects of antiparkinson drugs on phenothiazine induced catatonia reaction//Arch. Int Pharmacodyn., 1962, vol. 137 No 1-2, p. 84-94). Reduction or prevention of catalepsy is one of the factors showing antidepressant activity in studied substances.
The studies have been conducted with white outbred male mice having the weight from 18 to 24 grams. Haloperidol is introduced intraperitoneally in a single dose of 0.5 mg/kg. Phenotropyl has been introduced intraperitoneally in doses of 50, 100 and 200 mg/kg in 15 minutes after the introduction of haloperidol. The catalepsy intensity has been assessed by time (in seconds) of keeping the animals in an uncomfortable pose where their front legs have been put onto a bar having the height of 4 cm, in 60, 120 and 180 minutes after introducing the said medications. It is shown in Table 4 that phenotropyl clearly antagonizes haloperidol-induced catalepsy.

[3] = reserpine 2.5 mg/kg + phenotropyl 25 mg/kg intraperitoneally
[4] = reserpine 2.5 mg/kg + phenotropyl 50 mg/kg intraperitoneally
[5] = reserpine 2.5 mg/kg + phenotropyl 100 mg/kg intraperitoneally
[6] = reserpine 2.5 mg/kg + phenotropyl 200 mg/kg intraperitoneally

NC(=O)CN1CC(c2ccccc2)CC1=O (centres unmarked) [Phenotropyl, N-carbamoyl-methyl-4-phenyl-2-pyrrolidone]
reduction in the time of immobility as compared to the control group (white outbred male rats [1]; doses of 50 and 100 mg/kg): 1.6 times
Time of immobility (white outbred male rats [1]; single dose 25 mg/kg intragastrically 40 minutes before): 275.5 ± 84.2 s
Time of immobility (white outbred male rats [1]; single dose 50 mg/kg intragastrically 40 minutes before): 185.7 ± 49.5 s
Time of immobility (white outbred male rats [1]; single dose 100 mg/kg intragastrically 40 minutes before): 158.4 ± 43.2 s
antidepressant effect in behavioral despair test (white outbred male rats [1]; single doses of 50 and 100 mg/kg): pronounced antidepressant effect
reduction of the diarrhea intensity (white outbred male rats [2]; phenotropyl 50 mg/kg): 1.7 times
reduction of the intensity of ptosis (white outbred male rats [2]; phenotropyl 50 mg/kg): 1.4 times
reduction of the diarrhea intensity (white outbred male rats [2]; phenotropyl 100 mg/kg): 2.4 times
reduction of the diarrhea intensity (white outbred male rats [2]; phenotropyl 200 mg/kg): 2.2 times
reduction of the intensity of ptosis (white outbred male rats [2]; phenotropyl 100 and 200 mg/kg): 1.8 times
orientation and motion activity (white outbred male rats [2]; phenotropyl doses of 25 and 50 mg/kg): increased
orientation and motion activity (white outbred male rats [2]; phenotropyl doses of 100 and 200 mg/kg): reliably corresponds to the control level
Diarrhea (white outbred male rats [2]; [3]): 2.0 ± 0.1 points
Ptosis (white outbred male rats [2]; [3]): 3.0 ± 0.2 points
Number of pulses in activity meter (white outbred male rats [2]; [3]): 20.3 ± 1.4
Diarrhea (white outbred male rats [2]; [4]): 1.4 ± 0.2 points
Ptosis (white outbred male rats [2]; [4]): 2.5 ± 0.2 points
Number of pulses in activity meter (white outbred male rats [2]; [4]): 22.8 ± 1.2
Diarrhea (white outbred male rats [2]; [5]): 1.0 ± 0.2 points
Ptosis (white outbred male rats [2]; [5]): 2.0 ± 0.2 points
Number of pulses in activity meter (white outbred male rats [2]; [5]): 30.6 ± 2.4
Diarrhea (white outbred male rats [2]; [6]): 1.1 ± 0.2 points
Ptosis (white outbred male rats [2]; [6]): 2.0 ± 0.1 points
Number of pulses in activity meter (white outbred male rats [2]; [6]): 33.9 ± 3.2
Catalepsy (white outbred male mice; haloperidol 0.5 mg/kg + phenotropyl 50 mg/kg intraperitoneally, 60 minutes): 0.0 ± 0.0 s
Catalepsy (white outbred male mice; haloperidol 0.5 mg/kg + phenotropyl 50 mg/kg intraperitoneally, 120 minutes): 8.2 ± 3.2 s
Catalepsy (white outbred male mice; haloperidol 0.5 mg/kg + phenotropyl 50 mg/kg intraperitoneally, 180 minutes): 4.5 ± 2.5 s
Catalepsy (white outbred male mice; haloperidol 0.5 mg/kg + phenotropyl 100 mg/kg intraperitoneally, 60 minutes): 0.0 ± 0.0 s
Catalepsy (white outbred male mice; haloperidol 0.5 mg/kg + phenotropyl 100 mg/kg intraperitoneally, 120 minutes): 2.0 ± 1.0 s
Catalepsy (white outbred male mice; haloperidol 0.5 mg/kg + phenotropyl 100 mg/kg intraperitoneally, 180 minutes): 0.0 ± 0.0 s
Catalepsy (white outbred male mice; haloperidol 0.5 mg/kg + phenotropyl 200 mg/kg intraperitoneally, 60 minutes): 0.0 ± 0.0 s
Catalepsy (white outbred male mice; haloperidol 0.5 mg/kg + phenotropyl 200 mg/kg intraperitoneally, 120 minutes): 11.8 ± 2.1 s
Catalepsy (white outbred male mice; haloperidol 0.5 mg/kg + phenotropyl 200 mg/kg intraperitoneally, 180 minutes): 0.0 ± 0.0 s
reduction of catalepsy development level (white outbred male mice; phenotropyl 50 mg/kg, 120 minutes): 3.2 times
reduction of catalepsy development level (white outbred male mice; phenotropyl 50 mg/kg, 180 minutes): 13.2 times
reduction of catalepsy development level (white outbred male mice; phenotropyl 100 mg/kg, 120 minutes): 14 times
development of catalepsy (white outbred male mice; phenotropyl dose of 100 or 200 mg/kg, 180 minutes): fully stopping its development
development of catalepsy (white outbred male mice; phenotropyl doses of 50 and 100 mg/kg, 60 minutes): fully prevents the development of catalepsy
